In PubChem BioAssay AID2060617 (Molecular Pharmacology Branch, DTP, NCI, 2025):
pIC50: −log10 of the molar value.

Tested on: 485368-065-R4-J2-PDC spheroids with HUVEC/MSC, viability
Experiment: Anticancer human tumor 485368-065-R4-J2-PDC patient-derived pancreatic carcinoma cell line growth inhibition [CLK]
Details: for pIC50: curve of first compound; for viability, T/C: stronger effect = lower value
Method in brief: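 Multi-cell-type spheroids combined patient-derived tumor cells with HUVEC endothelial cells and human mesenchymal stem cells. Paired agents were dosed in half-log steps down from about clinical Cmax, or from 10 microM where Cmax was unknown.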

[1] = second compound 0.0316 µM, first compound 0.0316 µM
[2] = second compound 0.0316 µM, first compound 0.1 µM
[3] = second compound 0.0316 µM, first compound 0.316 µM
[4] = second compound 0.0316 µM, first compound 1 µM
[5] = second compound 0.0316 µM, first compound 3.16 µM
[6] = second compound 0.0316 µM, first compound 10 µM
[7] = second compound 0.1 µM, first compound 0.0316 µM
[8] = second compound 0.1 µM, first compound 0.1 µM
[9] = second compound 0.1 µM, first compound 0.316 µM
[10] = second compound 0.1 µM, first compound 1 µM
[11] = second compound 0.1 µM, first compound 3.16 µM
[12] = second compound 0.1 µM, first compound 10 µM
[13] = second compound 0.316 µM, first compound 0.0316 µM
[14] = second compound 0.316 µM, first compound 0.1 µM
[15] = second compound 0.316 µM, first compound 0.316 µM
[16] = second compound 0.316 µM, first compound 1 µM
[17] = second compound 0.316 µM, first compound 3.16 µM
[18] = second compound 0.316 µM, first compound 10 µM
[19] = second compound 1 µM, first compound 0.0316 µM
[20] = second compound 1 µM, first compound 0.1 µM
[21] = second compound 1 µM, first compound 0.316 µM
[22] = second compound 1 µM, first compound 1 µM
[23] = second compound 1 µM, first compound 3.16 µM
[24] = second compound 1 µM, first compound 10 µM
[25] = second compound 3.16 µM, first compound 0.0316 µM
[26] = second compound 3.16 µM, first compound 0.1 µM
[27] = second compound 3.16 µM, first compound 0.316 µM
[28] = second compound 3.16 µM, first compound 1 µM
[29] = second compound 3.16 µM, first compound 3.16 µM
[30] = second compound 3.16 µM, first compound 10 µM
[31] = second compound 10 µM, first compound 0.0316 µM
[32] = second compound 10 µM, first compound 0.1 µM
[33] = second compound 10 µM, first compound 0.316 µM
[34] = second compound 10 µM, first compound 1 µM
[35] = second compound 10 µM, first compound 3.16 µM
[36] = second compound 10 µM, first compound 10 µM
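Further: spheroids exposed to compounds for seven days.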
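Wherever viability, T/C is given: 100% = DMSO vehicle control wells.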

With `CC(=O)O[C@H]1C(=O)[C@@]2(C)[C@H]([C@H](OC(=O)c3ccccc3)[C@]3(O)C[C@H](OC(=O)[C@H](O)[C@@H](NC(=O)c4ccccc4)c4ccccc4)C(C)=C1C3(C)C)[C@]1(OC(C)=O)CO[C@@H]1C[C@@H]2O` + CNC(=O)c1ccc(Nc2nc(OC3CCCC3)c3c(-c4ccc5nc(C)oc5c4)c[nH]c3n2)c(OC)c1 the pIC50 (second compound 0.0316 µM) was < 5.00, the pIC50 (second compound 0.1 µM) was < 5.00 and the pIC50 (second compound 0.316 µM) was < 5.00. The pIC50 (second compound 1 µM) was < 5.00, the pIC50 (second compound 3.16 µM) was < 5.00 and the pIC50 (second compound 10 µM) was < 5.00. The viability, T/C [1] was 63.4%, the viability, T/C [2] was 49.2% and the viability, T/C [3] was 55.9%. For the same molecule, the viability, T/C [4] was 62.6%, the viability, T/C [5] was 56.5% and the viability, T/C [6] was 55.8%. It also gave a viability, T/C [7] of 59.1%, a viability, T/C [8] of 66.3% and a viability, T/C [9] of 60.4%. It also gave a viability, T/C [10] of 56.7%, a viability, T/C [11] of 55.2% and a viability, T/C [12] of 76.5%. For the same molecule, the viability, T/C [13] was 76.3%, the viability, T/C [14] was 79.7% and the viability, T/C [15] was 85.2%. The viability, T/C [16] was 85.6%, the viability, T/C [17] was 86.6% and the viability, T/C [18] was 102%. For the same molecule, the viability, T/C [19] was 73.8%, the viability, T/C [20] was 82.2% and the viability, T/C [21] was 81.6%. It also gave a viability, T/C [22] of 83.5%, a viability, T/C [23] of 90.5% and a viability, T/C [24] of 91.9%. For the same molecule, the viability, T/C [25] was 74.4%, the viability, T/C [26] was 80.1% and the viability, T/C [27] was 86.4%. The viability, T/C [28] was 78.6%, the viability, T/C [29] was 88% and the viability, T/C [30] was 88.9%. The viability, T/C [31] was 67.5%, the viability, T/C [32] was 78.8% and the viability, T/C [33] was 73.9%. It also gave a viability, T/C [34] of 77.5%, a viability, T/C [35] of 82.4% and a viability, T/C [36] of 95.4%.
For `CCc1c2c(nc3ccc(O)cc13)-c1cc3c(c(=O)n1C2)COC(=O)[C@]3(O)CC` + CNC(=O)c1ccc(Nc2nc(OC3CCCC3)c3c(-c4ccc5nc(C)oc5c4)c[nH]c3n2)c(OC)c1, the pIC50 (second compound 0.0316 µM) was 8.43, the pIC50 (second compound 0.1 µM) was > 8.50 and the pIC50 (second compound 0.316 µM) was > 8.50. For the same molecule, the pIC50 (second compound 1 µM) was > 8.50, the pIC50 (second compound 3.16 µM) was > 8.50 and the pIC50 (second compound 10 µM) was > 8.50. It also gave a viability, T/C (second compound 0.0316 µM, first compound 0.00316 µM) of 53.6%, a viability, T/C (second compound 0.0316 µM, first compound 0.01 µM) of 27% and a viability, T/C [1] of 13.1%. It also gave a viability, T/C [2] of 7.46%, a viability, T/C [3] of 10.5% and a viability, T/C [4] of 16%. It also gave a viability, T/C (second compound 0.1 µM, first compound 0.00316 µM) of 46.3%, a viability, T/C (second compound 0.1 µM, first compound 0.01 µM) of 27% and a viability, T/C [7] of 12.6%. The viability, T/C [8] was 7.47%, the viability, T/C [9] was 8.97% and the viability, T/C [10] was 17%. For the same molecule, the viability, T/C (second compound 0.316 µM, first compound 0.00316 µM) was 41.9%, the viability, T/C (second compound 0.316 µM, first compound 0.01 µM) was 20.4% and the viability, T/C [13] was 11.7%. It also gave a viability, T/C [14] of 7.63%, a viability, T/C [15] of 9% and a viability, T/C [16] of 16.2%. For the same molecule, the viability, T/C (second compound 1 µM, first compound 0.00316 µM) was 25.8%, the viability, T/C (second compound 1 µM, first compound 0.01 µM) was 13.5% and the viability, T/C [19] was 8.98%. It also gave a viability, T/C [20] of 6.66%, a viability, T/C [21] of 10.7% and a viability, T/C [22] of 18.1%. The viability, T/C (second compound 3.16 µM, first compound 0.00316 µM) was 20.9%, the viability, T/C (second compound 3.16 µM, first compound 0.01 µM) was 11.3% and the viability, T/C [25] was 9.77%. For the same molecule, the viability, T/C [26] was 7.07%, the viability, T/C [27] was 11.5% and the viability, T/C [28] was 18.9%. It also gave a viability, T/C (second compound 10 µM, first compound 0.00316 µM) of 19.4%, a viability, T/C (second compound 10 µM, first compound 0.01 µM) of 13.9% and a viability, T/C [31] of 7.33%. The viability, T/C [32] was 7.37%, the viability, T/C [33] was 15.9% and the viability, T/C [34] was 20.8%.
Work on `COc1cccc2c1C(=O)c1c(O)c3c(c(O)c1C2=O)CC(O)(C(=O)CO)CC3OC1CC(N)C(O)C(C)O1` (stereo unspecified) + CNC(=O)c1ccc(Nc2nc(OC3CCCC3)c3c(-c4ccc5nc(C)oc5c4)c[nH]c3n2)c(OC)c1 yielded a pIC50 (second compound 0.0316 µM) of 6.35, a pIC50 (second compound 0.1 µM) of 6.39 and a pIC50 (second compound 0.316 µM) of 6.57. For the same molecule, the pIC50 (second compound 1 µM) was 6.81, the pIC50 (second compound 3.16 µM) was 6.87 and the pIC50 (second compound 10 µM) was 6.95. For the same molecule, the viability, T/C [1] was 89.3%, the viability, T/C [2] was 94.2% and the viability, T/C [3] was 56.9%. For the same molecule, the viability, T/C [4] was 31.6%, the viability, T/C [5] was 8.22% and the viability, T/C [6] was 23.9%. It also gave a viability, T/C [7] of 101%, a viability, T/C [8] of 100% and a viability, T/C [9] of 55.9%. The viability, T/C [10] was 26.9%, the viability, T/C [11] was 7.71% and the viability, T/C [12] was 22.3%. For the same molecule, the viability, T/C [13] was 101%, the viability, T/C [14] was 86.2% and the viability, T/C [15] was 45%. The viability, T/C [16] was 18.6%, the viability, T/C [17] was 6.61% and the viability, T/C [18] was 25.7%. It also gave a viability, T/C [19] of 91%, a viability, T/C [20] of 66% and a viability, T/C [21] of 25.1%. The viability, T/C [22] was 11.3%, the viability, T/C [23] was 6.11% and the viability, T/C [24] was 23.9%. For the same molecule, the viability, T/C [25] was 76.6%, the viability, T/C [26] was 61.7% and the viability, T/C [27] was 17.9%. It also gave a viability, T/C [28] of 8.87%, a viability, T/C [29] of 6.5% and a viability, T/C [30] of 15.5%. The viability, T/C [31] was 76.6%, the viability, T/C [32] was 53.4% and the viability, T/C [33] was 17.2%. For the same molecule, the viability, T/C [34] was 7.28%, the viability, T/C [35] was 7.64% and the viability, T/C [36] was 17.4%.
